Patent US5770565A, “Peptides for reducing or inhibiting bone resorption” (priority 1994, dated 1998)
Where a SMILES comes first, the peptide text is derived from it. Bridges are numbered along the chain shown (N, C = ends). [ ]: non-standard residue; d: D form. Tic = O=C(O)[C@@H]1Cc2ccccc2CN1; Pen = CC(C)(S)[C@H](N)C(=O)O; Mpa = O=C(O)CCS

What was measured:
[1] = test system: αV β3 integrin, osteoclasts; assay: series of assays of Example II for potency and selectivity (summary, FIG. 2)
Excerpt: Peptides of the RGDNTic (SEQ ID NO: 56) pharmacophore group are characterized, in general, as having increased potency, whereas the peptides of the pharmacophore RGDDV (SEQ ID NO: 1) group generally have higher receptor selectivity. […] As used herein, the term "potency" or "potent" means that a peptide of the invention is active at a relatively low concentration in the assays described in Examples II and III. A potent peptide of the invention can be identified, for example, using the assays described in Examples II and III.
Selectivity can be due, for example, to the ability of a peptide of the invention to bind to αV β3 with greater affinity than it binds to other integrins. Thus, in addition to having selectivity, for example, for osteoclast binding to a matrix, a peptide of the invention also can display receptor selectivity and, therefore, more specifically alter receptor-mediated binding to a matrix. As used herein, the term "receptor selectivity" means that a peptide of the invention can bind to one receptor with greater affinity than it can bind to another receptor.

[2] = test system: Swiss-Webster mice; assay: PTH-induced hypercalcemia assay; assay type: in vivo; conditions: peptide infused 4 hr at various doses, 0.2 mg PTH/kg i.v., FIG. 9
Excerpt: Parathyroid hormone (PTH) activates osteoclasts, which are involved in bone resorption. Associated with the increased osteoclast activity is an increase in serum calcium. The PTH-induced hypercalcemia assay measures the level of serum calcium, which is an indication of bone resorption in a subject (Fischer et al., Endocrinology 132:1411-1413 (1993), which is incorporated herein by reference).
Swiss-Webster mice, which had been parathyroidectomized two weeks prior to beginning the assay, were obtained from Taconic Lab Animals and Services (Germantown N.Y.). Femoral vein catheters (PE-50 fused with PE10 polyethylene tubing; Becton Dickinson; Parsippany, N.J.) were installed in the mice, flushed and locked with heparinized saline (1:10), sutured to adjacent muscle and internalized within the inguinal space of the incision before closing the incision with wound clips. […]
The experiment was initiated by feeding the mice a calcium-deficient diet overnight, then injecting the mice the following morning with a bolus of 0.2 mg PTH/kg (hPTH 1-34; Bachem; Torrance Calif.), intravenously. […] Various doses of a peptide or vehicle were infused into an animal for 4 hr, then ionized serum calcium again was measured. […] Serum calcium measurements were expressed as the difference between the value 30 min before the PTH pulse and 4 hr after peptide infusion was started. […]

[3] = biological target: T1, α5 β1 (FnR) (Homo sapiens, UniProt P05556+P08648); assay: α5 β1 ELISA (competitive receptor binding); conditions: receptor ELISAs compared
T1 construct: Fibronectin receptor (FnR) was purified from 100 mM octyl-glucopyranoside-extracted human placenta; from tissue; host or cells: human placenta
Method: (§1) Peptide binding to purified human αV β5 and αV β3, which are VnR's, and to α5 β1, which is a FnR, was determined using competitive ELISA assays as described below.
Peptide binding to purified human α5 β1 (FnR) also was determined using a competitive ELISA. In these assays, Fn was immobilized to the wells and the binding of solubilized FnR in the presence of various concentrations of a peptide analogue was determined using a mouse monoclonal antibody to human β1 (clone P4C10; Gibco) and specific binding was visualized using a second antibody.
Microtiter wells were coated at RT by adding 100 μl of 2 μg/ml human Fn in TBS and incubating the plates overnight at 4° C. Following incubation, the plates were washed 3× with TBS/"TWEEN-20". RGD peptides were diluted in TBS containing 20 mM OG and 2 mM MnCl2 and 50 μl was added to wells at 10-fold serial dilutions. FnR was diluted in the same buffer and 50 μl was added to each well.
The plates were incubated for 3 hr at RT and washed with 300 μl TBS/"TWEEN-20". Bound receptor was incubated with 100 μl of the monoclonal anti-β1 antibody for 2 hr, then washed 3× with TBS/"TWEEN-20". […] The amount of bound second antibody was determined as described above.
The IC50 values for various RGD peptides were calculated by determining the concentration of a peptide that inhibited binding of Vn to αV β5 or αV β3 or of Fn to α5 β1 by 50%. […]

[4] = biological target: T2, αV β3 receptor (Homo sapiens, UniProt P05106+P06756); assay: αV β3 ELISA (competitive receptor binding); conditions: receptor ELISAs compared
T2 construct: The αV β3 receptor was purified from octylglucopyranoside-extracted human placenta; from tissue; host or cells: human placenta
Method: as §1
Peptide binding to purified αV β3 receptor was determined by using a competitive ELISA, in which αV β3 receptor was immobilized and the binding of solubilized VN, in the presence of various concentrations of peptide analogue, was detected using a monoclonal mouse IgG anti-VN antibody and a labelled anti-mouse IgG conjugate. A monoclonal anti-VN antibody can be obtained using routine methods (see, for example, Harlow and Lane, Antibodies: A laboratory manual (Cold Spring Harbor Laboratory Press 1988), which is incorporated herein by reference).
96 well microtiter plates were coated overnight at RT with 100 μl/well of αV β3 receptor (0.5 μg/ml in 1×TBS, 4 mM octylglucoside, 1 mM CaCl2). The wells were blocked with 200 μl/well of 1% BSA in 1×TBS, 1 mM CaCl2 for at least 30 min. The plates were washed 2× with 1×TBS, 1 mM CaCl2. 50 μl peptide in 1×TBS, 1 mM CaCl2, 0.05% "TWEEN 20" polyoxyethylenesorbitan monolaurate was added in 10-fold serial dilutions. 50 μl of Vn in the same buffer then was added to each well.
The plates were incubated for 3 hr at RT, then washed 3× with 1×TBS, 0.05% "TWEEN 20" polyoxyethylenesorbitan monolaurate. […] The plates were read at 490 nm and the data analyzed by four parameter fit. […]

[5] = half-life of peptide in serum; conditions: in vivo
Excerpt: Increased stability of a disulfide bonded peptide of the invention also can be conferred by incorporating a hydrophobic amino acid residue such as phenylalanine at position X1 or X8 or both X1 and X8 in an RGDNTic (SEQ ID NO: 56) or RGDDV (SEQ ID NO: 1) pharmacophore as disclosed herein. The presence of such a residue can stabilize the disulfide bond against enzymatic degradation (see Bauer et al., Life Sciences 31:1133-1140 (1982)). […] In addition, the half-life of a peptide in a subject can be determined, for example, by high performance liquid chromatography (HPLC) of serum samples collected from the subject at various times following administration of the peptide. One skilled in the art would know how to select appropriate elution buffers for HPLC based on the physico-chemical properties of a particular peptide.

[6] = test system: osteoclasts; conditions: cited from earlier work

Compound: CC(C)[C@@H]1NC(=O)[C@H](CC(=O)O)NC(=O)[C@H](CC(=O)O)NC(=O)CNC(=O)[C@H](CCCNC(=N)N)NC(=O)[C@H](C)NC(=O)[C@H](CCCNC(=N)N)NC(=O)[C@@H](NC(=O)CN)C(C)(C)SSC[C@@H](C(=O)N[C@@H](C)C(=O)O)NC1=O [compound 138] (H-G[Pen]RARGDDVCA-OH; disulfide 2-10)
- potency and selectivity together (summary classification) [1]: both potent and selective
- receptor selectivity (summary classification) [1]: particularly receptor selective

Compound: C[C@@H]1NC(=O)[C@H](C)NC(=O)[C@@H](NC(=O)CN)C(C)(C)SSC[C@@H](C(N)=O)NC(=O)[C@H]([C@@H](C)O)NC(=O)[C@H](CC(=O)O)NC(=O)[C@H](CC(=O)O)NC(=O)CNC(=O)[C@H](CCCNC(=N)N)NC1=O [compound 186] (H-G[Pen]AARGDDTC-NH2; disulfide 2-10)
- receptor selectivity (summary classification) [1]: particularly receptor selective

Compound: CC(C)[C@@H]1NC(=O)[C@H](CC(=O)O)NC(=O)[C@H](CC(=O)O)NC(=O)CNC(=O)[C@H](CCCNC(=N)N)NC(=O)CCSSC[C@@H](C(N)=O)NC1=O [compound 191] ([Mpa]RGDDVC-NH2; disulfide 1-7)
- effect on PTH-induced rise in serum ionized calcium [2]: decreased the PTH-induced rise in serum ionized calcium in a dose responsive manner

Compound: CC(=O)N[C@H]1CSSC(C)(C)[C@@H](C(N)=O)NC(=O)[C@@H]2CCCN2C(=O)[C@H](CC(N)=O)NC(=O)[C@H](CC(=O)O)NC(=O)CNC(=O)[C@H](CCCNC(=N)N)NC1=O [compound 228] (Ac-CRGDNP[Pen]-NH2; disulfide 1-7)
- receptor selectivity (summary classification) [1]: particularly receptor selective

Compound: C[C@H](NC(=O)[C@@H]1CSSC(C)(C)[C@H](NC(=O)CN)C(=O)N[C@@H](C)C(=O)N[C@@H](C)C(=O)N[C@@H](CCCNC(=N)N)C(=O)NCC(=O)N[C@@H](CC(=O)O)C(=O)N[C@@H](CC(N)=O)C(=O)N2CCC[C@H]2C(=O)N1)C(=O)O [compound 310] (H-G[Pen]AARGDNPCA-OH; disulfide 2-10)
- selectivity toward α5 β1 versus αV β5 [3]: more selective toward α5 β1 than toward αV β5

Compound: CC(=O)N[C@H]1CSSC[C@@H](C(N)=O)NC(=O)[C@@H]2Cc3ccccc3CN2C(=O)[C@H](CO)NC(=O)[C@H](CC(=O)O)NC(=O)CNC(=O)[C@H](CCCNC(=N)N)NC1=O [compound 812, Ac-CRGDS(Tic)Cs-NH2] (Ac-CRGDS[Tic]C-NH2; disulfide 1-7)
- potency (summary classification) [1]: particularly potent
- activity of peptides with minimally essential elements ([1]; FIG. 2): demonstrate activity

Compound: CC(=O)N[C@@H]1C(=O)N[C@@H](Cc2ccccc2)C(=O)N[C@@H](C)C(=O)N[C@@H](CCCNC(=N)N)C(=O)NCC(=O)N[C@@H](CC(=O)O)C(=O)N[C@@H](CC(N)=O)C(=O)N2CCC[C@H]2C(=O)N[C@H](C(N)=O)CSSC1(C)C [peptide 214] (Ac-[Pen]FARGDNPC-NH2; disulfide 1-9)
- relative affinity for αV β3, α5 β1 and αV β5 [4]: higher affinity for αV β3 and α5 β1 than for αV β5
- potency (summary classification) [1]: particularly potent

Compound: CC(=O)N[C@@H](Cc1ccccc1)C(=O)N[C@H]1CSSC[C@@H](C(N)=O)NC(=O)[C@H](Cc2ccccc2)NC(=O)[C@H]([C@@H](C)O)NC(=O)[C@H](CC(=O)O)NC(=O)CNC(=O)[C@H](CCCNC(=N)N)NC1=O [peptide 220] (Ac-FCRGDTFC-NH2; disulfide 2-8)
- half-life in serum [5]: relatively long

Compound: Echistatin
- binding to osteoclasts [6]: nonselective
